Test results published in patent US7947689B2, “Substituted pyrazolo[1,5-a]pyrimidines as metabotropic glutamate receptor modulators” (Merz Pharma GmbH & Co. KGaA, priority 2006, dated 2011).

Tests used:
[1] = target: T1, transmembrane allosteric modulatory sites of mGluR5 receptors (Rattus norvegicus, UniProt P31424); test: [3H]-MPEP binding assay in rat cortical membranes; details: displacement of radioligand, read-out: mGluR5_M_MPEP_r_CTX IC50
T1 construct: from tissue; host or cells: cortex of male Sprague-Dawley rats, membrane preparation
Method: Binding Assays for the Characterization of mGluR5 Antagonists
Preparation of Rat Cortical Membranes:
Male Sprague-Dawley rats (200-250 g) are decapitated and their brains are removed rapidly. The cortex is dissected and homogenized in 20 volumes of ice-cold 0.32 M sucrose using a glass-Teflon homogenizer. The homogenate is centrifuged at 1000×g for 10 minutes. The pellet is discarded and the supernatant centrifuged at 20,000×g for 20 minutes. The resulting pellet is re-suspended in 20 volumes of distilled water and centrifuged for 20 minutes at 8000×g. Then the supernatant and the buffy coat are centrifuged at 48,000×g for 20 minutes in the presence of 50 mM Tris-HCl, pH 8.0. The pellet is then re-suspended and centrifuged two to three more times at 48,000×g for 20 minutes in the presence of 50 mM Tris-HCl, pH 8.0. All centrifugation steps are carried out at 4° C. After resuspension in 5 volumes of 50 mM Tris-HCl, pH 8.0 the membrane suspension is frozen rapidly at −80° C.
On the day of assay the membranes are thawed and washed four times by resuspension in 50 mM Tris-HCl, pH 8.0 and centrifugation at 48,000×g for 20 minutes and finally re-suspended in 50 mM Tris-HCl, pH 7.4. The amount of protein in the final membrane preparation (500-700 μg/ml) is determined according to the method of Lowry (Lowry O. H. et al. 1951. J. Biol. Chem. 193, 256-275).
The incubations are continued at room temperature for 60 minutes (equilibrium is achieved under the conditions used). […] Incubations are terminated using a Millipore filter system. The samples are rinsed twice with 4 ml of ice-cold assay buffer over glass fibre filters (Schleicher & Schuell, Germany) under a constant vacuum. Following separation and rinse, the filters are placed into scintillation liquid (5 ml Ultima Gold, Perkin Elmer, Germany) and radioactivity retained on the filters is determined with a conventional liquid scintillation counter (Can berra Packard, Germany).

mGluR5 receptors = target: T2, mGluR5 receptors (Rattus norvegicus, UniProt P31424); test: Cytosolic calcium studies with astrocytes (astrocyte culture test, FLIPR); type: cell-based; details: rat primary astrocytes; L-quisqualate 100 nM; read-out: mGluR5_FLIPR_r_rpA— IC50
T2 construct: endogenous in cells; host or cells: primary astrocytes from neocortex of Sprague-Dawley rat pups (2-4 d old)
Method: Primary astrocyte cultures are prepared from cortices of newborn rats as described by Booher and Sensenbrenner (1972, Neurobiology 2(3):97-105). Briefly, Sprague-Dawley rat pups (2-4 d old) are decapitated and neocortices are dissected, disintegrated with a nylon filter (pore size 80 μm) and carefully triturated. The cell suspension is plated on poly-D-lysine pre-coated flasks (Costar, Netherlands) and cultivated in Dulbecco's Modified Eagle's Medium (DMEM, Invitrogen, Germany) supplemented with 10% foetal calf serum (FCS, Sigma, Germany), 4 mM glutamine and 50 μg/ml gentamycin (both Biochrom, Germany) at 37° C. in a humidified atmosphere of 5% CO2/95% air for 7 d with exchanging the medium at day 2 and 6.
After 7 days in vitro (DIV), cells are shaken overnight at 250 rpm to remove oligodendrocytes and microglia. The next day, astrocytes are rinsed twice with CMF-PBS (calcium- and magnesium-free phosphate buffered saline, Biochrom, Germany), trypsinized and subplated on poly-D-lysine pre-coated 96-well plates (Greiner, Germany) at a density of 40,000 cells/well. 24 h after establishing the secondary culture the astrocytes are rinsed with PBS^++ (phosphate buffered saline, Biochrom, Germany) and fed with astrocyte-defined medium (ADM) consisting of DMEM containing 1×G5-supplement (Invitrogen, Germany), 0.5 μg/ml heparan sulfate, and 1.5 μg/ml fibronectin (both Sigma, Germany) (Miller et al., (1993) Brain Res. 618(1):175-8). 3 d later the medium is exchanged and the cells incubated for another 2-3 d, so that at the time of experiments astrocytes are 14-15 DIV.
Cytosolic Calcium Studies with Astrocytes:
The increase of cytosolic calcium after stimulation with the mGluR5 agonist L-quisqualate is measured using a fluorometric imaging plate reader (FLIPR) and the Ca-Kit (both Molecular Devices). Prior to addition of agonist or antagonist the medium is aspirated and cells are loaded for 2 h at RT with 150 μl of loading buffer consisting of Ca-sensitive dye reconstituted in sodium chloride (123 mM), potassium chloride (5.4 mM), magnesium chloride (0.8 mM), calcium chloride (1.8 mM), D-glucose (15 mM), and HEPES (20 mM), pH 7.3. Subsequently, plates are transferred to FLIPR to detect calcium increase with the addition of L-quisqualate (100 nM) measured as relative fluorescence units (RFU). If antagonists are tested, these compounds are pre-incubated for 10 minutes at RT before addition of the respective agonist.
(§1) The fluorescence signal increase after addition of agonist reflects the increase of cytosolic calcium. Inconsistencies in the amount of cells per well are normalised by using the spatial uniformity correction of the FLIPR software. The mean of replicated temporal data (n=3-5) is calculated and used for graphical representation. For the evaluation of the pharmacology, the calcium changes in response to different concentrations of agonist or antagonist are determined using a maximum minus minimum (MaxMin) calculation.
(§2) All responses (RFU-values) are determined as percentage of control (=maximum response). EC50 and IC50 are calculated according the logistic equation using GraFit 5.0 (Erithacus Software, GB) or Prism 4.0 (GraphPad Software, USA).

[2] = target: T3, metabotropic glutamate receptor (mGluR5) (Homo sapiens, UniProt P41594); test: Cytosolic calcium studies with stably transfected cells (FLIPR, CHO-K1); type: cell-based; parameters: expressed in transfected cells; host or cells: CHO-K1 cells (IPTG-inducible expression); details: CHO-K1 cells expressing human mGluR5; agonist L-quisqualic acid at 80% of maximal signal; negative modulation; read-out: mGluR5_FLIPR_h_CHO_NAM— IC50
Method: Cytosolic Calcium Studies with Stably Transfected Cells:
Chinese hamster ovary cells (CHO-K1 cells), stably transfected for inducible expression of a human metabotropic glutamate receptor mGluR5, are seeded into black clear bottom 96 well plates at a density of 35.000 cells per well. The standard growth medium used (Dulbecco's modified Eagle Medium, DMEM plus L-proline) contains the appropriate inducer isopropyl-β-D-thiogalactopyranosid (IPTG) to achieve optimal receptor expression. One day after seeding the growth medium is exchanged for reconstituted Ca-Kit (Molecular Devices, USA) and incubated for one hour. Ca-Kit is reconstituted in an assay buffer containing 20 mM HEPES pH 7.4, glutamic-pyruvate transaminase, pyridoxal phosphate and sodium pyruvate in Hank's balanced salt solution (HBBS). Agonistic compounds to the receptor elicit increases in cytosolic calcium which can be measured as increases in fluorescence signals by use of a fluorescence imaging plate reader (Molecular Devices).
as §1, §2

[3] = target: T3, metabotropic glutamate receptor (mGluR5); test: Activity as mGluR5 modulator (test not specified); details: for activity as metabotropic glutamate receptor (mGluR5) modulator: prior-art compounds

T3 sequence (P41594 21-1212): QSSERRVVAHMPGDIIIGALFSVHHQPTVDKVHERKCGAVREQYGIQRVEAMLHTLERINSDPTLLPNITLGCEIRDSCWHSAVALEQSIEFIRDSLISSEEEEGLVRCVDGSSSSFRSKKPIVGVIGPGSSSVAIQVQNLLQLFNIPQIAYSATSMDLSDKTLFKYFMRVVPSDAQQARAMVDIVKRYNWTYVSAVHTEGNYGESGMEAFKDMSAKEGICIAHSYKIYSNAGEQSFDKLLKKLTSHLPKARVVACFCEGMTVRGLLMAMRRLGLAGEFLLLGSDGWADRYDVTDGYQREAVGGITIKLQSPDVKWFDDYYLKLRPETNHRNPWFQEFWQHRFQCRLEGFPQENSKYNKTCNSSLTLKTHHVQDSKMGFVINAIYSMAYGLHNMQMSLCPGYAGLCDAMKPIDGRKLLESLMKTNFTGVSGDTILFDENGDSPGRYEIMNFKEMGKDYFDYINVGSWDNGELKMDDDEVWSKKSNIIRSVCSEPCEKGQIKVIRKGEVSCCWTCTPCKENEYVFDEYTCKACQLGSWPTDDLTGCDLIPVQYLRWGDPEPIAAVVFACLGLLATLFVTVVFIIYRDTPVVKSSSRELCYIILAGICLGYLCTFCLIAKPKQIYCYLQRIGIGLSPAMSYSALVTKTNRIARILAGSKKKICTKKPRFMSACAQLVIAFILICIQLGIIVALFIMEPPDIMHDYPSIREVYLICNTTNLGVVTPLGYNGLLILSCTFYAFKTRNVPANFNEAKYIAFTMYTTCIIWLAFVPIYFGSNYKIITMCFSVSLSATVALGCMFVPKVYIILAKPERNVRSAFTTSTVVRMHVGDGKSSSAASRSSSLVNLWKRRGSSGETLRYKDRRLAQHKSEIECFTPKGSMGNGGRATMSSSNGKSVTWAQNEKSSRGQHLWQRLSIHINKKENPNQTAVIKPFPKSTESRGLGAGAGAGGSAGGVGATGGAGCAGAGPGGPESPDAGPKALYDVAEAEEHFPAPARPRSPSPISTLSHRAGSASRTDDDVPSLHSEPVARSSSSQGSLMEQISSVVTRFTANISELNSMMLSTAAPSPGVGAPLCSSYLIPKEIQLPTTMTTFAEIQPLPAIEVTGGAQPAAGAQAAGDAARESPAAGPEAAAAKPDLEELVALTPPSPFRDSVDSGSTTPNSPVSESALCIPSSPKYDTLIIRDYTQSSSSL
T1 sequence (P31424 21-1203): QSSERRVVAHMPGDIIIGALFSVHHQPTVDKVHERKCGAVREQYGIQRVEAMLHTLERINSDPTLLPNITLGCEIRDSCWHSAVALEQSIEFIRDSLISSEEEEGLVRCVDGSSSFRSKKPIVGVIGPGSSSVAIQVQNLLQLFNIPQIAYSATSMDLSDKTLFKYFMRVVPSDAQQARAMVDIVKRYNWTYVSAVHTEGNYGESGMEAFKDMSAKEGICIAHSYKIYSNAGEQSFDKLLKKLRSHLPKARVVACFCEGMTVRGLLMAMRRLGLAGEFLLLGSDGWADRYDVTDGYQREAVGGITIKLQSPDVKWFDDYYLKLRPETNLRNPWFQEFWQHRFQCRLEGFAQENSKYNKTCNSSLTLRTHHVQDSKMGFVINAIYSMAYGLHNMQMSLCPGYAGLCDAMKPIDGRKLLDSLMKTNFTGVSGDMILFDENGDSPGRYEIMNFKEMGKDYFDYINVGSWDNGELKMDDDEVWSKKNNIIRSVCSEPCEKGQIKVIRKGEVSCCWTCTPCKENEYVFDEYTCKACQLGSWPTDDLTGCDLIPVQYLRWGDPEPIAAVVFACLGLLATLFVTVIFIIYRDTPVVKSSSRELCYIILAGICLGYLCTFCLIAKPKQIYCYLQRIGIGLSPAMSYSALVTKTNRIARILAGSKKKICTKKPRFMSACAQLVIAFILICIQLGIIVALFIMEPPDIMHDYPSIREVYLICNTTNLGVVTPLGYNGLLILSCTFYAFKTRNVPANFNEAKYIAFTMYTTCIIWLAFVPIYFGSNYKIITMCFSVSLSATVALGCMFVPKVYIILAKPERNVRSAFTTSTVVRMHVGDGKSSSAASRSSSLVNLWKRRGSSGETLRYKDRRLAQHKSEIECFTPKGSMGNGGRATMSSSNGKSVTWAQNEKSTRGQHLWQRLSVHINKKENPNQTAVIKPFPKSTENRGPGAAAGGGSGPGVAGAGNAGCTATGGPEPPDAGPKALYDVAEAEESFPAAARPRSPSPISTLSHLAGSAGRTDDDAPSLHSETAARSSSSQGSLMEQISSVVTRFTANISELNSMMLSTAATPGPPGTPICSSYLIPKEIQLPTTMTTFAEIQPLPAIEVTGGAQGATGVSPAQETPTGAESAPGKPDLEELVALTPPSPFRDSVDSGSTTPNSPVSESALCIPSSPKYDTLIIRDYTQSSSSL
T2 sequence (P31424 21-1203): as above

Row | SMILES | IC50 [1] | IC50 (mGluR5 receptors) | IC50 [2] | melting point | activity as metabotropic glutamate receptor (mGluR5) modulator [3] | selectivity ([3]; prior-art compound)
1 | CC1c2ccsc2CCN1C(=O)c1cc2ncc(Cl)cn2n1 (stereo not shown) [Example 2, (6-Chloro-pyrazolo[1,5-a]pyrimidin-2-yl)-(4-methyl-6,7-dihydro-4H-thieno[3,2-c]pyridin-5-yl)-methanone] | 55 nM | 24 nM | 44 nM |  |  | 
2 | CCC1c2ccsc2CCN1C(=O)c1cc2ncc(Br)cn2n1 (stereo not shown) [Example 9, (6-Bromo-pyrazolo[1,5-a]pyrimidin-2-yl)-(4-ethyl-6,7-dihydro-4H-thieno[3,2-c]pyridin-5-yl)-methanone] | 117 nM | 21 nM | 63.6 nM |  |  | 
3 | CCC1c2ccsc2CCN1C(=O)c1cc2ncc(Cl)cn2n1 (stereo not shown) [Example 10, (6-Chloro-pyrazolo[1,5-a]pyrimidin-2-yl)-(4-ethyl-6,7-dihydro-4H-thieno[3,2-c]pyridin-5-yl)-methanone] | 150 nM | 21 nM | 82 nM |  |  | 
4 | O=C(c1cc2ncc(Br)cn2n1)N1CCCCC1 [Example B308, (6-Bromopyrazolo[1,5-a]pyrimidin-2-yl)-piperidin-1-yl-methanone] |  |  |  |  | no particular activity | 
5 | O=C(c1cc2ncc(Br)cn2n1)N1CCOCC1 [Example B310, (6-Bromopyrazolo[1,5-a]pyrimidin-2-yl)-morpholin-4-yl-methanone] |  |  |  |  | no particular activity | 
6 | O=C(c1cc2ncc(Br)cn2n1)N1CCc2ccccc2C1 [M, (6-Bromo-pyrazolo[1,5-a]pyrimidin-2-yl)-(1,2,3,4-tetrahydro-isoquinolin-2-yl)-methanon] |  |  |  |  | only a limited activity | not selective

The remaining lines, values ahead:

Row | IC50 [1] | IC50 (mGluR5 receptors) | IC50 [2] | melting point | activity as metabotropic glutamate receptor (mGluR5) modulator [3] | selectivity ([3]; prior-art compound) | SMILES
7 | 80 nM | 23 nM | 80.7 nM |  |  |  | CC1c2ccsc2CCN1C(=O)c1cc2ncc(Br)cn2n1 (stereo not shown) [Example 1, 6-Bromo-2-[(4-methyl-6,7-dihydrothieno[3,2-c]pyridin-5(4H)-yl)carbonyl]pyrazolo[1,5-a]pyrimidine]
8 | 12 nM | 22.8 nM | 104 nM |  |  |  | Cc1cc2c(s1)CCN(C(=O)c1cc3ncc(Br)cn3n1)C2C (stereo not shown) [Example 15, (6-Bromo-pyrazolo[1,5-a]pyrimidin-2-yl)-(2,4-dimethyl-6,7-dihydro-4H-thieno[3,2-c]pyridin-5-yl)-methanone]
9 | 20 nM | 21 nM | 92.9 nM |  |  |  | Cc1cc2c(s1)CCN(C(=O)c1cc3ncc(Cl)cn3n1)C2C (stereo not shown) [Example 16, (6-Chloro-pyrazolo[1,5-a]pyrimidin-2-yl)-(2,4-dimethyl-6,7-dihydro-4H-thieno[3,2-c]pyridin-5-yl)-methanone]
10 | 214 nM | 80.5 nM | 107 nM |  |  |  | CC1c2ccoc2CCN1C(=O)c1cc2ncc(Br)cn2n1 (stereo not shown) [Example 28, 6-Bromo-2-[(4-methyl-6,7-dihydrofuro[3,2-c]pyridin-5(4H)-yl)carbonyl]pyrazolo[1,5-a]pyrimidine]
11 | 110 nM | 64 nM | 206 nM |  |  |  | CC1c2ccoc2CCN1C(=O)c1cc2ncc(Cl)cn2n1 (stereo not shown) [Example 29, 6-Chloro-2-[(4-methyl-6,7-dihydrofuro[3,2-c]pyridin-5(4H)-yl)carbonyl]pyrazolo[1,5-a]pyrimidine]
12 |  |  | 4420 nM | 136 to 137 °C |  |  | C[C@H]1c2ccsc2CCN1C(=O)c1cc2ncc(Br)cn2n1 [Example 41, (6-Bromo-pyrazolo[1,5-a]pyrimidin-2-yl)-(4-methyl-6,7-dihydro-4H-thieno[3,2-c]pyridin-5-yl)-methanone]
13 | 10 nM | 20 nM | 23.4 nM | 142 to 144 °C |  |  | C[C@@H]1c2ccsc2CCN1C(=O)c1cc2ncc(Br)cn2n1 [Example 42, (6-Bromo-pyrazolo[1,5-a]pyrimidin-2-yl)-(4-methyl-6,7-dihydro-4H-thieno[3,2-c]pyridin-5-yl)-methanone]
14 | 17 nM | 36 nM | 147 nM |  |  |  | Cc1cc2c(o1)CCN(C(=O)c1cc3ncc(Br)cn3n1)C2C (stereo not shown) [Example 44, (6-Bromo-pyrazolo[1,5-a]pyrimidin-2-yl)-(2,4-dimethyl-6,7-dihydro-4H-furo[3,2-c]pyridin-5-yl)-methanone]
